Values of other authors in US20100317640A1, “ANTIMICROBIAL ZINC PYRITHIONE COMPOSITION AND METHOD” (MICROBAN PRODUCTS COMPANY, priority 2009, published 2010).

Conditions: neutral pH

zinc pyrithione
solubility in water: 8 ppm
